Measurements taken from US12324810B2, “3, 7-diamino-10H-phenothiazine salts and their use” (WisTa Laboratories Ltd., priority 2006, dated 2025).
Read-outs that look alike come from different tables or passages of the source.

How the values were obtained:
[1] = biological target: T1, full-length tau (T40) in fibroblast cells (3T6) (Homo sapiens, UniProt P10636); experiment: Cell-based assay for establishing EC50 (generation of the 12 kD fragment)
T1 construct: fibroblast cells (3T6) express full-length tau (“T40”) under control of an inducible promoter; low constitutive levels of the PHF-core tau fragment (12 kD fragment); expressed in transfected cells; host or cells: 3T6 fibroblast cells
T1 sequence (P10636 2-441 isoform P10636-8 limits assumed): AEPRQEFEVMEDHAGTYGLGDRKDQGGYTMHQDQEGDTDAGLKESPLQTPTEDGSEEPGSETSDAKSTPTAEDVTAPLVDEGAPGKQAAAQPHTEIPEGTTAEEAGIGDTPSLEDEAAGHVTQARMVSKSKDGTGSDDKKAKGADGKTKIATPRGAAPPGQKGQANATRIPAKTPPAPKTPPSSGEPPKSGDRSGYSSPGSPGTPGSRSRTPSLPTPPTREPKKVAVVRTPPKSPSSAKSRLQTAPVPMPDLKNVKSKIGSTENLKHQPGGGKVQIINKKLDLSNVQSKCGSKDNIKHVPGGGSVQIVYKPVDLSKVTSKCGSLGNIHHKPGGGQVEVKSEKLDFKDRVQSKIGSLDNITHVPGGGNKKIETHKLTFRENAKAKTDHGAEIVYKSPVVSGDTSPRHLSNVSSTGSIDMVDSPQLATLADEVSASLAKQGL
Text: Briefly, fibroblast cells (3T6) express full-length tau (“T40”) under control of an inducible promoter, and low constitutive levels of the PHF-core tau fragment (12 kD fragment). When T40 expression is induced, it undergoes aggregation-dependent truncation within the cell, N-terminally at ˜αα295 and C-terminally at ˜αα390, thereby producing higher levels of the 12 kD PHF-core domain fragment. […] Indeed, the quantitation of inhibitory activity of compounds with respect to proteolytic generation of the 12 kD fragment within cells can be described entirely in terms of the same parameters that describe inhibition of tau-tau binding in vitro. That is, the extent of proteolytic generation of the 12 kD fragment within cells is determined entirely by the extent of tau-tau binding through the repeat domain. The availability of the relevant proteases within the cell is non-limiting.
Results are expressed as the concentration at which there is a 50% inhibition of generation of the 12 kD fragment. This is referred to as the EC50 value.

[2] = test system: fibroblast cells (3T6); type: cell-based; conditions: therapeutic index, RxI = LD50/EC50
Experimental: Toxicity of the compounds described herein was assessed in the cell based assay used to assess EC50. […] Alternatively, a kit from Promega UK (CytoTox 96) was used, again according to the manufacturer's instructions.

[3] = Partition coefficient, n-octanol/water, visible spectrophotometry; type: physicochemical
Experimental: In this study, aqueous solutions of selected compounds were shaken with n-octanol and aliquots concentrations in each phase determined by visible spectrophotometry. The log10P was then calculated for each compound, using the following formula:

[4] = Stability of the solid form in storage; type: physicochemical
Experimental: A batch of N,N,N′,N′-tetramethyl-10H-phenothiazine-3,7-diamine bis(hydrogen bromide) was prepared in April 2006 and analysed by NMR. […] The colour of the solid remained consistent over time. It appears that the molecule, in this form, is stable under these conditions over this time period.

[5] = Stability in aqueous solution (percent reduced form by absorbance at 610 nm and 665 nm); type: physicochemical
Experimental: The compounds were weighed into universal containers. Enough water was added to yield a 1 mM solution, and the mixture stirred to dissolve the solid. The absorbance was determined at 610 nm and 665 nm for 50 μL samples (in triplicate) of each of the solutions at various time points. The initial time point taken was at 10 minutes as the compounds took time to dissolve completely. A UV/visible spectrum was also recorded at time points 20 minutes, 3 hours, and 18 hours.

[6] = concentration at which there is a 50% inhibition of generation of the 12 kD fragment, 3T6 cells, read-out: EC50

| Structure (SMILES) | EC50 [1, 6] | RxI [2] | Log10P [3] | other results |
| --- | --- | --- | --- | --- |
| CN(C)c1ccc2c(c1)Sc1cc(N(C)C)ccc1N2 [Compound B3, N,N,N′,N′-Tetramethyl-10H-phenothiazine-3,7-diamine bis(hydrogen chloride)] | 500 nM | 88 | −0.13 | state of solid form after storage ([4]; solid form, after 2 years in storage): substantially reduced |
| Nc1ccc2c(c1)Sc1cc(N)ccc1N2 [Compound B4, 3,7-Diamino-phenothiazine bis(hydrogen chloride)] | 2230 nM | – | – | – |
| CN(C)c1ccc2c(c1)Sc1cc(N(C)C)ccc1N2 [Compound B6, N,N,N′,N′-Tetramethyl-10H-phenothiazine-3,7-diamine bis(hydrogen iodide)] | – | 303 | −0.498 | EC50 [1]: 380 nM; time remaining substantially stable (>50% reduced form) ([5]; 1 mM solution in water): ~3 h; rate of autoxidation ([5]; aqueous solution, compared to the chloride compound (Compound B3)): slower |
| CN(C)c1ccc2c(c1)Sc1cc(N(C)C)ccc1N2 [N,N,N′,N′-Tetramethyl-10H-phenothiazine-3,7-diamine bis(hydrogen bromide] | – | – | – | stability of solid after storage (NMR, colour) ([4]; solid, 10 months of storage in the dark at room temperature): stable |
